# pIC50: −log10 of the molar value.
# How the values were obtained:
# Type in all cases: biochemical
# [1] = biological target: T1, TANK binding kinase (TBK1) (Homo sapiens, UniProt Q9UHD2); assay: TBK1 kinase test, 384-well flashplate; details: enzymatic; 10 μM ATP
# T1 sequence (Q9UHD2 1-729): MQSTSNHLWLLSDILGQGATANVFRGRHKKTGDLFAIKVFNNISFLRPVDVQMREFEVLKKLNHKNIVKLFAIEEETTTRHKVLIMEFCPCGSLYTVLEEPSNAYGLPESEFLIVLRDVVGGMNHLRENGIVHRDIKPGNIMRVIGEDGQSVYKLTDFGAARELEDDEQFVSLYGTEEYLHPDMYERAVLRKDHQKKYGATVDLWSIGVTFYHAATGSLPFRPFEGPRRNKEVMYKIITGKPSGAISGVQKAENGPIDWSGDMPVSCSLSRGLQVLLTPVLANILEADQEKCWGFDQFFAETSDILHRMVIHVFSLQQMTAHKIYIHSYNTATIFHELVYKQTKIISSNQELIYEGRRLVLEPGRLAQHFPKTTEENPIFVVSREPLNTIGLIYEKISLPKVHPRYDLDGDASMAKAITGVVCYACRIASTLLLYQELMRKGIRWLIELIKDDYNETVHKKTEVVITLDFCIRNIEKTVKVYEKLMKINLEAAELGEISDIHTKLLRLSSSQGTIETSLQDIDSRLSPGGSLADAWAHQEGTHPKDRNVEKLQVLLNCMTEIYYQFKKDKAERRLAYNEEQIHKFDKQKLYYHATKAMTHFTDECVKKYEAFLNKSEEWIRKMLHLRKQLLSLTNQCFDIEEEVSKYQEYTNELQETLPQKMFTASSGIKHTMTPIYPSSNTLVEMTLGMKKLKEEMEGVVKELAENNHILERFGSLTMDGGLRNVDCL
# Description: The kinase assay is performed as 384-well flashplate assay. 0.6 nM TANK binding kinase (TBK1), 800 nM biotinylated MELK-derived peptide (biotin-Ah-Ah-[…] (SEQ ID NO: 3)) and 10 μM ATP (with 0.25 μCi of 33P-ATP/well) are incubated in a total volume of 50 μl (10 mM MOPS, 10 mM magnesium acetate, 0.1 mM EGTA, 1 mM DTT, 0.02% of Brij35, 0.1% of BSA, pH 7.5) with or without test substance at 30° C. for 120 min. The reaction is stopped using 25 μl of 200 mM EDTA solution, filtered off with suction after 30 min at room temperature, and the wells are washed 3 times with 100 μl of 0.9% NaCl solution. The non-specific proportion of the kinase reaction (blank) is determined using 100 nM staurosporine. Radioactivity is measured in the Topcount. IC50 values are calculated using RS1.
# FAK = biological target: T2, FAK (Homo sapiens, UniProt Q05397); assay: FAK kinase assay (autophosphorylation), 384-well flashplate; details: enzymatic; 1 μM ATP; read-out: IC50 (enzymatic), FAK inhibition
# T2 construct: 2 nM FAK, 400 nM biotinylated substrate
# Description: The focal adhesion kinase (FAK) assay is carried out either as a 384-well flashplate assay (for example for Topcount measurements) or as a 384-well image flashplate assay (for LEADseeker measurements). […] The reaction is stopped using 25 μl of 200 mM EDTA. After 30 min at 30° C., the liquid is removed, and each well is washed three times with 100 μl of 0.9% sodium chloride solution. Non-specific reaction is determined in the presence of 1 μM EMD 1076893/0(PF-562271). The radioactivity is measured using Topcount (in the case of the use of flashplates) or using LEADseeker (in the case of the use of image flashplates).
# PDK1 = biological target: T3, PDK1 (Homo sapiens, UniProt O15530); assay: Test for the inhibition of PDK1, 384-well flashplate; details: enzymatic; 4 μM ATP
# T3 construct: the PDK1 sample His6-PDK1(Δ1-50)(3.4 nM)
# T3 sequence (O15530 51-556): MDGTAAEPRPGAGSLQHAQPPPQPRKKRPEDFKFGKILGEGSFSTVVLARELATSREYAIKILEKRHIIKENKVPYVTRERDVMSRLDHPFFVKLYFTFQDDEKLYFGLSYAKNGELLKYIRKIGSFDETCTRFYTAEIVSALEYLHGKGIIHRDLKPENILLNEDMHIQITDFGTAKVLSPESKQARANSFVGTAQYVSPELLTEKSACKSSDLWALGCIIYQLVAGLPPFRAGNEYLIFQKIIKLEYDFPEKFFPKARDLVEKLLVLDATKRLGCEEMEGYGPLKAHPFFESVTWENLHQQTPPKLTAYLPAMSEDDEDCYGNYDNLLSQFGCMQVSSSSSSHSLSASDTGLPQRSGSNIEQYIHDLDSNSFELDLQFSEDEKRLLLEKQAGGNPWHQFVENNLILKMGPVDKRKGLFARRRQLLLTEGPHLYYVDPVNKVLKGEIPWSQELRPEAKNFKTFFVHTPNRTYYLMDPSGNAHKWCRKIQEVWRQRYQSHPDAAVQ
# Description: The experimental batches are carried out in a flashplate system with 384 wells/microtitration plate.
# In each case, the PDK1 sample His6-PDK1(Δ1-50)(3.4 nM) (“His6” disclosed as SEQ ID NO: 4), the PDK1 substrate biotin-bA-bA-[…] (SEQ ID NO: 1) (400 nM), 4 μM ATP (with 0.2 μCi of 33P-ATP/well) and the test substance in 50 μl of conventional experimental solution per well are incubated at 30° C. for 60 min. The test substances are employed in corresponding concentrations (if desired in a dilution series). The control is carried out without test substance. The reaction is stopped using standard methods and washed. The activity of the kinase is measured via the incorporated radioactivity in top count. In order to determine the non-specific kinase reaction (blank value), the experimental batches are carried out in the presence of 100 nM staurosporine.
# The radioactivity (decompositions per minute) of the blank value (no use of test substance in the presence of staurosporine) is subtracted from all other radioactivity values. The controls (kinase activity without test substance) are set equal to 100 percent and all other radioactivity values (after subtracting the blank value) are expressed set in relation thereto (for example in % of the control).
# IKKε = biological target: T4, IKKε (Homo sapiens, UniProt Q14164); assay: IKKε kinase test (IKKepsilon), 384-well flashplate; details: enzymatic; 10 μM ATP; read-out: IKKe IC50 (enzymatic)
# T4 construct: 1 nM IKKε, 800 nM biotinylated IκBα(19-42) peptide
# T4 sequence (Q14164 1-716): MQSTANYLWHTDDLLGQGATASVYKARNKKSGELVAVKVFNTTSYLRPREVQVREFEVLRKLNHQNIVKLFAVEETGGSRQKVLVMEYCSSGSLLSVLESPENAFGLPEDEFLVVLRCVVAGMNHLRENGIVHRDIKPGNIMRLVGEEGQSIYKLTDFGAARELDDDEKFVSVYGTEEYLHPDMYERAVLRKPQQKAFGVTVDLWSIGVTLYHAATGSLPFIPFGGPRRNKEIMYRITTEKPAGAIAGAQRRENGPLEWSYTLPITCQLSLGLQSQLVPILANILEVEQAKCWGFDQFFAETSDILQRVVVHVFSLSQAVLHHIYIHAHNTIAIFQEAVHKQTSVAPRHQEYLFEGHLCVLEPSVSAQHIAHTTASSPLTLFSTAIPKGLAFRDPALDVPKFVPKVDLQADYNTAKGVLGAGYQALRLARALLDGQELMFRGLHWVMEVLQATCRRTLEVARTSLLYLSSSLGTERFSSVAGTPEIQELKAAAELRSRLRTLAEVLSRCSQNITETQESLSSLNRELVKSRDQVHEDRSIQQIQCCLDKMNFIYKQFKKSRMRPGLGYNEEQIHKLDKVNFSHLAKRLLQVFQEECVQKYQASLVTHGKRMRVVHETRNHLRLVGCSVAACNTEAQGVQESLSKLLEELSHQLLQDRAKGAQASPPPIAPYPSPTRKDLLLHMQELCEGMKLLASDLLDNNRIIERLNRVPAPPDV
# Description: The kinase assay is performed as 384-well flashplate assay. 1 nM IKKε, 800 nM biotinylated IκBα(19-42) peptide (biotin-C6-C6-[…] (SEQ ID NO: 2)) and 10 μM ATP (with 0.3 μCi of 33P-ATP/well) are incubated in a total volume of 50 μl (10 mM MOPS, 10 mM magnesium acetate, 0.1 mM EGTA, 1 mM dithiothreitol, 0.02% of Brij, 0.1% of BSA, 0.1% of BioStab, pH 7.5) with or without test substance at 30° C. for 120 min. The reaction is stopped using 25 μl of 200 mM EDTA solution, filtered off with suction after 30 min at room temperature, and the wells are 25 washed 3 times with 100 μl of 0.9% NaCl solution. The non-specific proportion of the kinase reaction (blank) is determined using 3 μM EMD 1126352 (BX-795). Radioactivity is measured in the Topcount. IC50 values are calculated using RS1.
# T2 sequence (Q05397 whole entry): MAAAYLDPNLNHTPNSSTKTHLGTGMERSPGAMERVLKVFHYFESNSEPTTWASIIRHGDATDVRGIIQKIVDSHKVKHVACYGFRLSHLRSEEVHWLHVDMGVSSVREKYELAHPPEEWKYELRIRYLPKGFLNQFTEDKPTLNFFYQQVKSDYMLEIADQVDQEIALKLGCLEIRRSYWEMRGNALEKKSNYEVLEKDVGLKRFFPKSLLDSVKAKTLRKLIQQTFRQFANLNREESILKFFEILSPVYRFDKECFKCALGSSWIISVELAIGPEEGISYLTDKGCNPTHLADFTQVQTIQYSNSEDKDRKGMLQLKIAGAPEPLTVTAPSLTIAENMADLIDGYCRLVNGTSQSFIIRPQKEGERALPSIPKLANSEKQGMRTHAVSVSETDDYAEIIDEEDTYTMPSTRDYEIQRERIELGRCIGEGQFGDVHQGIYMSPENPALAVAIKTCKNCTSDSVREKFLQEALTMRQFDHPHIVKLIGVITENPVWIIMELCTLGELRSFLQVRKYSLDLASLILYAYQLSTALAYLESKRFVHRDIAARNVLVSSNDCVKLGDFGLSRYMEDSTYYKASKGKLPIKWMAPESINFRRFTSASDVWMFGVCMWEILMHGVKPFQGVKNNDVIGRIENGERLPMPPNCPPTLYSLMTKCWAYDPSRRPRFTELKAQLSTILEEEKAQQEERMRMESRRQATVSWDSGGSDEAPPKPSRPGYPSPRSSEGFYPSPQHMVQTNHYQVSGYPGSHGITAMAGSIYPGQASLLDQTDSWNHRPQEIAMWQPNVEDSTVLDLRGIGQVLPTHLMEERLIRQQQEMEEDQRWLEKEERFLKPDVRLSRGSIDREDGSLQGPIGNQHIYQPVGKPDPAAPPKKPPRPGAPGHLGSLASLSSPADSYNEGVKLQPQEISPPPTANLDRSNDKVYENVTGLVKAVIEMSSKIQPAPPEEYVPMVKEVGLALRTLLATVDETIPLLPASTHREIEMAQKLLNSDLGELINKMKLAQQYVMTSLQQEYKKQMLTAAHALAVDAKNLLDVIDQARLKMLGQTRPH
Compound,pIC50 [1],pIC50 (FAK),pIC50 (PDK1),pIC50 (IKKε)
"Nc1ccc(-c2c(C(F)(F)F)cnc3[nH]c(-c4ccc(N5CCOCC5)cc4)cc23)cc1 [A100, 4-[2-(4-Morpholin-4-ylphenyl)-5-trifluoromethyl-1H-pyrrolo[2,3-b]pyridin-4-yl]phenylamine]",5.52 to 6.52,–,–,–
"CN(c1ncccc1-c1nc2ncnc(Nc3cnn(C)c3)c2[nH]1)S(C)(=O)=O [A6, N-Methyl-N-{3-[6-(1-methyl-1H-pyrazol-4-yl-amino)-7H-purin-8-yl]pyridin-2-yl}methanesulfonamide]",–,4.30 to 5.52,–,–
"FC(F)(F)c1cnc2[nH]c(-c3ccc(N4CCOCC4)cc3)cc2c1-c1cn[nH]c1 [A102, 2-(4-Morpholin-4-ylphenyl)-4-(1H-pyrazol-4-yl)-5-trifluoromethyl-1H-pyrrolo[2,3-b]pyridine]",–,–,4.30 to 5.52,–
"CN(c1ncccc1-c1cc2ccnc(Nc3ccc4c(c3)CC(=O)N4)c2[nH]1)S(C)(=O)=O [A1, N-Methyl-N-{3-[7-(2-oxo-2,3-dihydro-1H-indol-5-ylamino)-1H-pyrrolo-[2,3-c]pyridin-2-yl]-pyridin-2-yl}methanesulfonamide]",–,4.30 to 5.52,–,–
"O=c1ccc(-c2c(C(F)(F)F)cnc3[nH]c(-c4ccc(N5CCOCC5)cc4)cc23)c[nH]1 [A97, 5-[2-(4-Morpholin-4-ylphenyl)-5-trifluoromethyl-1H-pyrrolo[2,3-b]pyridin-4-yl]-1H-pyridin-2-one]",5.52 to 6.52,–,5.52 to 6.52,5.52 to 6.52
"Cn1cc(-c2c(C(F)(F)F)cnc3[nH]c(-c4ccc(C(=O)N5CCOCC5)cc4)cc23)cn1 [A96, {4-[4-(1-Methyl-1H-pyrazol-4-yl)-5-trifluoro-methyl-1H-pyrrolo[2,3-b]pyridin-2-yl]phenyl}-morpholin-4-ylmethanone]",> 6.52,–,> 6.52,5.52 to 6.52
"Cn1cc(-c2c(C(F)(F)F)cnc3[nH]c(-c4cccc(N5CCOCC5)c4)cc23)cn1 [A104, 4-(1-Methyl-1H-pyrazol-4-yl)-2-(3-morpholin-4-ylphenyl)-5-trifluoromethyl-1H-pyrrolo[2,3-b]-pyridine]",–,–,5.52 to 6.52,–
"Cn1cc(-c2c(C(F)(F)F)cnc3[nH]c(-c4cccc(C(=O)N5CCOCC5)c4)cc23)cn1 [A95, {3-[4-(1-Methyl-1H-pyrazol-4-yl)-5-trifluoro-methyl-1H-pyrrolo[2,3-b]pyridin-2-yl]phenyl}-morpholin-4-ylmethanone]",5.52 to 6.52,–,5.52 to 6.52,4.30 to 5.52
"Cn1cc(-c2c(C(F)(F)F)cnc3[nH]c(-c4ccc(F)cc4)cc23)cn1 [A105, 2-(4-Fluorophenyl)-4-(1-methyl-1H-pyrazol-4-yl)-5-trifluoromethyl-1H-pyrrolo[2,3-b]pyridine]",–,–,5.52 to 6.52,–
"CN(c1ncccc1-c1cc2ccnc(Nc3ccc(N4CCOCC4)cc3)c2[nH]1)S(C)(=O)=O [A2, N-Methyl-N-{3-[7-(4-morpholin-4-ylphenyl-amino)-1H-pyrrolo[2,3-c]pyridin-2-yl]pyridin-2-yl}methanesulfonamide]",–,4.30 to 5.52,–,–
"CN(c1ncccc1-c1nc2ncnc(Nc3ccc(N4CCOCC4)cc3)c2[nH]1)S(C)(=O)=O [A5, N-Methyl-N-{3-[6-(4-morpholin-4-ylphenyl-amino)-7H-purin-8-yl]pyridin-2-yl}methanesulfonamide]",–,4.30 to 5.52,–,–
"CN(c1ncccc1-c1cc2ccnc(Nc3ccc4c(c3)CCC(=O)N4)c2[nH]1)S(C)(=O)=O [A3, N-Methyl-N-{3-[7-(2-oxo-1,2,3,4-tetrahydroquinolin-6-ylamino)-1H-pyrrolo[2,3-c]pyridin-2-yl]pyridin-2-yl}methanesulfonamide]",–,4.30 to 5.52,–,–
"CN(c1ncccc1-c1nc2ccnc(Nc3ccc4c(c3)CCC(=O)N4)c2[nH]1)S(C)(=O)=O [A7, N-Methyl-N-{3-[4-(2-oxo-1,2,3,4-tetra-hydroquinolin-6-ylamino)-3H-imidazo[4,5-c]-pyridin-2-yl]pyridin-2-yl}methanesulfonamide]",–,4.30 to 5.52,–,–
"COc1cc(N2CCOCC2)ccc1Nc1ncnc2nc(-c3cccnc3N(C)S(C)(=O)=O)[nH]c12 [A4, N-{3-[6-(2-Methoxy-4-morpholin-4-ylphenyl-amino)-7H-purin-8-yl]pyridin-2-yl}-N-methyl-methanesulfonamide]",–,4.30 to 5.52,–,–

# From patent publication US9249140B2, “Bicyclic heteroaromatic compounds” (MERCK PATENT GMBH, priority 2011, dated 2016)
